Data published in patent US12617752B2, “Rapidly metabolized lipid compound” (Beijing Jitai Life Sciences Ltd, priority 2023, dated 2026).

How the values were obtained:
[1] = Encapsulation efficiency of lipid nanoparticles (Quant-it RiboGreen RNA Assay); format: physicochemical; conditions: lipid nanoparticles with luciferase mRNA
Method in brief: (§1)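 LNPs of ionizable lipid/cholesterol/phospholipid/PEG-lipid (50/38.5/10/1.5 mol%, N/P 6) were formed by microfluidic mixing with mRNA in pH 4.5 acetate, then buffer-exchanged by ultrafiltration. Size and PDI were measured by DLS. Encapsulation came from RiboGreen fluorescence (485/528 nm) in TE pH 7.5, with and without 0.5% Triton at 37 °C for 30 min.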

[2] = system: C57BL/6 mice; assay: In vivo delivery of luciferase mRNA lipid nanoparticles in mice (bioluminescence imaging); conditions: intravenous, single dose 0.5 mg/kg luciferase mRNA
Method in brief: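 Female C57BL/6 mice, 6-8 weeks old, received luciferase mRNA lipid nanoparticles as a single intravenous dose of 0.5 mg/kg mRNA. At 6 h, D-luciferin given intraperitoneally; 10 min later, mice were imaged under isoflurane anaesthesia. Values are group mean fluorescence intensity and total photon count.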

[3] = Particle size and PDI of lipid nanoparticles by dynamic light scattering; format: physicochemical; conditions: lipid nanoparticles with luciferase mRNA; ionizable lipid/cholesterol/DSPC/DMG-PEG2000 50/38.5/10/1.5 mol%
Method in brief: as §1

| SMILES | Encapsulation efficiency (%) [1] | Particle size (nm) [3] | Particle-size distribution (PDI) [3] | Total photon count in vivo at 6 hours after administration (Total Flux) [2] |
| --- | --- | --- | --- | --- |
| CCCCCCCCCCC(=O)OCC(C)(C)CCCCCN(CCCCO)CCCCCCC(=O)OCC(CCCCCCCCC)CCCCCCCCC [78b] | 92.27% | 98.88 nm | 0.12 | 5.51E+10 |
| CCCCCCCCCCC(=O)OCC(C)(C)CCCCCN(CCCO)CCCCCCCCC(=O)OCC(CCCCCCC)CCCCCCC [79b] | 92.85% | 99.27 nm | 0.15 | 1.62E+11 |
| CCCCCCCCCCC(=O)OCCCC(C)(C)CCCN(CCO)CCCCCCCC(=O)OCCC(CCCCCCC)CCCCCCC [80b] | 93.59% | 93.39 nm | 0.18 | 8.94E+10 |
| CCCCCCCCCCC(=O)OCCCC(C)(C)CCCN(CCCO)CCCCCCCC(=O)OCCC(CCCCCCC)CCCCCCC [81b] | 92.87% | 107.43 nm | 0.19 | 5.20E+10 |
| CCCCCCCCCC(=O)OCCCC(C)(C)CCCN(CCCO)CCCCCCC(=O)OCC(CCCCCCCC)CCCCCCCC [82b] | 90.71% | 99.57 nm | 0.16 | 5.03E+10 |
| CCCCCCCCCC(=O)OCCCC(C)(C)CCCN(CCCO)CCCCCCC(=O)OCCCC(CCCCCC)CCCCCC [83b] | 95.70% | 100.67 nm | 0.10 | 1.62E+10 |
| CCCCCCCCCC(=O)OCCCC(C)(C)CCCN(CCCCO)CCCCCCC(=O)OCC(CCCCCCCC)CCCCCCCC [84b] | 89.17% | 123.77 nm | 0.11 | 6.68E+10 |
| CCCCCCCCCCC(=O)OCC(C)(C)CCCCCN(CCCO)CCCCCCC(=O)OCC(CCCCCCCCC)CCCCCCCCC [85b] | 95.44% | 92.14 nm | 0.17 | 9.61E+10 |
| CCCCCCCCCCCC(=O)OCC(C)(C)CCCCCN(CCCO)CCCCCCC(=O)OCC(CCCCCCCCCC)CCCCCCCCCC [86b] | 94.74% | 92.26 nm | 0.13 | 1.01E+11 |
| CCCCCCCCCCC(=O)OCC(C)(C)CCCCCN(CCO)CCCCCCCCC(=O)OCC(CCCCCCC)CCCCCCC [87b] | 94.16% | 92.25 nm | 0.22 | 1.35E+11 |
| CCCCCCCCCCCC(=O)OCC(C)(C)CCCCCN(CCCO)CCCCCCCCC(=O)OCC(CCCCCCCC)CCCCCCCC [88b] | 94.68% | 98.16 nm | 0.12 | 4.51E+10 |
| CCCCCCCCCCC(=O)OCC(C)(C)CCCCCN(CCCCO)CCCCCCCCC(=O)OCC(CCCCCCC)CCCCCCC [89b] | 84.88% | 122.20 nm | 0.08 | 5.51E+10 |
| CCCCCCCCCCCC(=O)OCC(C)(C)CCCCCN(CCCCO)CCCCCCCCC(=O)OCC(CCCCCCCC)CCCCCCCC [90b] | 91.21% | 109.57 nm | 0.08 | 4.72E+10 |
| CCCCCCCCCCCC(=O)OCC(C)(C)CCCCCN(CCCCO)CCCCCCC(=O)OCC(CCCCCCCCCC)CCCCCCCCCC [91b] | 91.95% | 96.43 nm | 0.12 | 8.66E+10 |
| CCCCCCCCCC(=O)OCCCC(C)(C)CCCN(CCCO)CCCCCCC(=O)OCCC(CCCCCCC)CCCCCCC [92b] | 92.47% | 99.90 nm | 0.15 | 3.74E+10 |
| CCCCCCCCCC(=O)OCCCC(C)(C)CCCN(CCCCO)CCCCCCC(=O)OCCC(CCCCCCC)CCCCCCC [93b] | 90.17% | 141.73 nm | 0.10 | 2.45E+10 |

Second part, led by results:

| Encapsulation efficiency (%) [1] | Particle size (nm) [3] | Particle-size distribution (PDI) [3] | SMILES | Total photon count in vivo at 6 hours after administration (Total Flux) [2] |
| --- | --- | --- | --- | --- |
| 93.55% | 125.60 nm | 0.11 | CCCCCCCCCC(=O)OCCCC(C)(C)CCCN(CCCCO)CCCCCCC(=O)OCCCC(CCCCCC)CCCCCC [94b] | 2.23E+10 |
| 95.41% | 84.62 nm | 0.15 | CCCCCCCCCCC(=O)OCCCC(C)(C)CCCN(CCO)CCCCCCC(=O)OCC(CCCCCCCCC)CCCCCCCCC [95b] | 2.44E+10 |
| 92.10% | 97.75 nm | 0.15 | CCCCCCCCCCC(=O)OCCCC(C)(C)CCCN(CCO)CCCCCCCCC(=O)OCC(CCCCCCC)CCCCCCC [96b] | 3.77E+10 |
| 93.79% | 85.56 nm | 0.14 | CCCCCCCCCCCC(=O)OCC(C)(C)CCCCCN(CCO)CCCCCCC(=O)OCC(CCCCCCCCCC)CCCCCCCCCC [97b] | 9.01E+10 |
| 93.04% | 87.99 nm | 0.18 | CCCCCCCCCCCC(=O)OCC(C)(C)CCCCCN(CCO)CCCCCCCCC(=O)OCC(CCCCCCCC)CCCCCCCC [98b] | 1.07E+11 |
| 92.70% | 85.13 nm | 0.15 | CCCCCCCCCCC(=O)OCCC(C)(C)CCCCN(CCO)CCCCCCCC(=O)OCC(CCCCCCCC)CCCCCCCC [99b] | 4.78E+10 |
| 91.14% | 101.50 nm | 0.12 | CCCCCCCCCCC(=O)OCCC(C)(C)CCCCN(CCCO)CCCCCCCC(=O)OCC(CCCCCCCC)CCCCCCCC [100b] | 8.51E+10 |
| 81.76% | 126.00 nm | 0.10 | CCCCCCCCCCC(=O)OCCC(C)(C)CCCCN(CCCCO)CCCCCCCC(=O)OCC(CCCCCCCC)CCCCCCCC [101b] | 5.39E+10 |
| 93.92% | 92.12 nm | 0.16 | CCCCCCCCCC(=O)OCCC(C)(C)CCCCN(CCO)CCCCCCC(=O)OCCC(CCCCCCC)CCCCCCC [102b] | 7.52E+10 |
| 94.07% | 96.82 nm | 0.11 | CCCCCCCCCC(=O)OCCC(C)(C)CCCCN(CCCO)CCCCCCC(=O)OCCC(CCCCCCC)CCCCCCC [103b] | 5.95E+10 |
| 91.51% | 135.57 nm | 0.09 | CCCCCCCCCC(=O)OCCC(C)(C)CCCCN(CCCCO)CCCCCCC(=O)OCCC(CCCCCCC)CCCCCCC [104b] | 3.20E+10 |
| 94.38% | 89.73 nm | 0.16 | CCCCCCCCC(=O)OCCC(C)(C)CCCCCN(CCO)CCCCCCC(=O)OCC(CCCCCCCC)CCCCCCCC [105b] | 9.24E+10 |
| 94.89% | 88.22 nm | 0.15 | CCCCCCCCCC(=O)OCCC(C)(C)CCCCCN(CCO)CCCCCCC(=O)OCC(CCCCCCCCC)CCCCCCCCC [106b] | 1.42E+11 |
| 94.05% | 88.13 nm | 0.16 | CCCCCCCCCC(=O)OCCC(C)(C)CCCCCN(CCO)CCCCCCCCC(=O)OCC(CCCCCCC)CCCCCCC [107b] | 1.98E+11 |
| 94.16% | 86.61 nm | 0.16 | CCCCCCCCCC(=O)OCCC(C)(C)CCCCCN(CCO)CCCCCCC(=O)OCCC(CCCCCCCC)CCCCCCCC [108b] | 1.38E+11 |
| 93.00% | 95.32 nm | 0.13 | CCCCCCCCCC(=O)OCCC(C)(C)CCCCCN(CCCCO)CCCCCCC(=O)OCCC(CCCCCCCC)CCCCCCCC [109b] | 1.90E+11 |
| 85.48% | 133.93 nm | 0.21 | CCCCCCCCC(=O)OCC(C)(C)CCCCCCN(CCO)CCCCCCC(=O)OCC(CCCCCCCC)CCCCCCCC [110b] | 1.36E+11 |
